Laboratory results published in patent publication US11415579B2, “Assay for measuring a rate of reaction between a target and a ligand candidate” (Imperial College Innovations Ltd., priority 2016, dated 2022).

Assays:
[1] = Kinetic thiol consumption assay with model thiol glutathione; type: physicochemical; set-up: Rate constant with glutathione (k(GSH)): unit not given here; settings: for Rate constant with glutathione (k(GSH)): 500 μM ligand, 5 μM thiol, phosphate buffer pH 8; for Rate constant with Glutathione: Protein: Glutathione, cysteine position NA, in h-1
Summary of the method: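 GSH 5 μM, degassed phosphate buffer pH 8, TCEP beads 2% v/v; acrylamide added; RT, 1 h; fluorescence ex/em 380/470 nm; normalized to DMSO/thiol control; k from first-order exponential decay fit.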

Cdk2(T182C) (C177A) = molecular target: T1, Cdk2(T182C) (C177A) (Homo sapiens, UniProt P24941, C177A/T182C); test: Kinetic thiol consumption assay with Cdk2 mutant T182C; type: binding; set-up: key to Rate enhancement, Cdk2 T182C: rate constant with Cdk2 ÷ rate constant with model thiol (fold); settings: additional mutation C177A; for Rate constant with Cdk2 T182C: Protein: Cdk2, cysteine position T182C, in h^-1
T1 construct: poly-histidine; made in house; host or cells: E. coli
Summary of the method: (§1)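 Thiol consumption was monitored kinetically using 5 μM Cdk2 (C177A plus one introduced cysteine) in degassed phosphate buffer at pH 8 with TCEP beads. Plates were kept 1 h at room temperature before fluorescence reading, and rate constants came from exponential decay fitting.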

Cdk2(R122C) (C177A) = molecular target: T2, Cdk2(R122C) (C177A) (Homo sapiens, UniProt P24941, C177A/R122C); test: Kinetic thiol consumption assay with Cdk2 mutant R122C; type: binding; set-up: key to Rate enhancement, Cdk2 R122C: rate constant with Cdk2 ÷ rate constant with model thiol (fold); settings: additional mutation C177A; for Rate constant with Cdk2 R122C: Protein: Cdk2, cysteine position R122C, in h-1
T2 construct: poly-histidine; made in house; host or cells: E. coli
Summary of the method: as §1

Cdk2(H71C) (C177A) = molecular target: T3, Cdk2(H71C) (C177A) (Homo sapiens, UniProt P24941, C177A/H71C); test: Kinetic thiol consumption assay with Cdk2 mutant H71C; type: binding; set-up: key to Rate enhancement, Cdk2 H71C: rate constant with Cdk2 ÷ rate constant with model thiol (fold); settings: additional mutation C177A; for Rate constant with Cdk2 H71C: Protein: Cdk2, cysteine position H71C, in h^-1
T3 construct: poly-histidine; made in house; host or cells: E. coli
Summary of the method: as §1

Cdk2[C177A, F80C, K278C] = molecular target: T4, Cdk2[C177A, F80C, K278C] (Homo sapiens, UniProt P24941, C177A/F80C/K278C); test: Kinetic thiol consumption assay with mutant Cdk2 as model thiol; type: binding; set-up: unit not given here; settings: 500 μM ligand, 5 μM thiol, phosphate buffer pH 8
T4 construct: poly-histidine; made in house; host or cells: E. coli
Summary of the method: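 First-order rate constants were derived by exponential-decay fitting of DMSO/thiol-normalized fluorescence (380/470 nm) over time at room temperature. Thiol was 5 μM E. coli-expressed His-tagged Cdk2 mutant C177A/F80C/K278C in degassed pH 8 phosphate buffer containing 2% v/v TCEP beads.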

Cdk2(N272C) (C177A) = molecular target: T5, Cdk2(N272C) (C177A) (Homo sapiens, UniProt P24941, C177A/N272C); test: Kinetic thiol consumption assay with Cdk2 mutant N272C; type: binding; set-up: key to Rate enhancement, Cdk2 N272: rate constant with Cdk2 ÷ rate constant with model thiol (fold); settings: for Rate enhancement, Cdk2 N272: Cdk2 N272, additional mutation C177A; for Rate constant with Cdk2 N272C: Protein: Cdk2, cysteine position N272C, additional mutation C177A, in h^-1
T5 construct: poly-histidine; made in house; host or cells: E. coli
Summary of the method: as §1

[2] = molecular target: T6, human cyclin-dependent kinase 2 (Cdk2) (Homo sapiens, UniProt P24941); test: Kinetic thiol consumption assay with wild type Cdk2 (C177); type: binding; set-up: key to Rate enhancement, Cdk2 WT: k(Cdk2) divided by k(model thiol); Rate constant with Cdk2 (k(Cdk2)): unit not given here; settings: for Rate constant with Cdk2 (k(Cdk2)): 500 μM ligand, 5 μM thiol, phosphate buffer pH 8; for Rate enhancement, Cdk2 WT: no additional mutations; for Rate constant with Cdk2 WT: Protein: Cdk2, cysteine position WT, in h^-1; for k(Cdk2)/k(Cdk2_mut) rate enhancement: model thiol Cdk2[C177A, F80C, K278C]; for k(Cdk2)/k(GSH) rate enhancement: model thiol glutathione
T6 construct: poly-histidine; made in house; host or cells: E. coli
Summary of the method: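 His-tagged human Cdk2 from E. coli (sole surface cysteine C177) or a model thiol, each 5 μM in degassed phosphate buffer pH 8 with immobilized TCEP, reacted with acrylamides at room temperature. Fluorescence (ex 380/em 470) normalized to DMSO/thiol control over time; first-order rate constants, Cdk2 rate divided by model-thiol rate.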

Cdk2(C177A, F80C) = molecular target: T7, Cdk2(C177A, F80C) (Homo sapiens, UniProt P24941, C177A/F80C); test: Kinetic thiol consumption assay with Cdk2 mutant F80C, incl. kobs versus concentration (Kd, k2); type: binding; set-up: key to Rate enhancement, Cdk2 F80C: Cdk2 rate constant divided by model-thiol rate constant; settings: additional mutation C177A; for Rate constant with Cdk2 F80C: Protein: Cdk2, cysteine position F80C, in h^-1
T7 construct: poly-histidine; made in house; host or cells: E. coli
Summary of the method: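 His-tagged Cdk2(C177A/F80C) from E. coli or model thiol, 5 μM in degassed phosphate buffer pH 8 with TCEP beads, reacted with acrylamide ligands; fluorescence (ex/em 380/470 nm) normalized to DMSO control and fitted to first-order decay for kobs. Kd and k2 obtained from hyperbolic fit of kobs versus ligand concentration.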

Cdk2(S276C) (C177A) = molecular target: T8, Cdk2(S276C) (C177A) (Homo sapiens, UniProt P24941, C177A/S276C); test: Kinetic thiol consumption assay with Cdk2 mutant S276C; type: binding; set-up: key to Rate enhancement, Cdk2 S276C: rate constant with Cdk2 ÷ rate constant with model thiol (fold); settings: additional mutation C177A; for Rate constant with Cdk2 S276C: Protein: Cdk2, cysteine position S276C, in h^-1
T8 construct: poly-histidine; made in house; host or cells: E. coli
Summary of the method: as §1

Cdk2(S181C) (C177A) = molecular target: T9, Cdk2(S181C) (C177A) (Homo sapiens, UniProt P24941, C177A/S181C); test: Kinetic thiol consumption assay with Cdk2 mutant S181C; type: binding; set-up: key to Rate enhancement, Cdk2 S181C: rate constant with Cdk2 ÷ rate constant with model thiol (fold); settings: additional mutation C177A; for Rate constant with Cdk2 S181C: Protein: Cdk2, cysteine position S181C, in h^-1
T9 construct: poly-histidine; made in house; host or cells: E. coli
Summary of the method: as §1

| Structure (SMILES) | Rate constant with glutathione (k(GSH)) [1] | Rate constant with Glutathione [1] | Rate enhancement, Cdk2 T182C (Cdk2(T182C) (C177A)) | Rate constant with Cdk2 T182C (Cdk2(T182C) (C177A)) | Rate enhancement, Cdk2 R122C (Cdk2(R122C) (C177A)) | Rate constant with Cdk2 R122C (Cdk2(R122C) (C177A)) | Rate enhancement, Cdk2 H71C (Cdk2(H71C) (C177A)) | Rate constant with Cdk2 H71C (Cdk2(H71C) (C177A)) | Rate constant with Cdk2[C177A, F80C, K278C] (k(Cdk2_mut)) (Cdk2[C177A, F80C, K278C]) | Rate enhancement, Cdk2 N272 (Cdk2(N272C) (C177A)) | Rate constant with Cdk2 N272C (Cdk2(N272C) (C177A)) | Rate constant with Cdk2 (k(Cdk2)) [2] | Rate enhancement, Cdk2 WT [2] | Rate constant with Cdk2 WT [2] | k(Cdk2)/k(Cdk2_mut) rate enhancement [2] | k(Cdk2)/k(GSH) rate enhancement [2] | Rate enhancement, Cdk2 F80C (Cdk2(C177A, F80C)) | Rate enhancement, Cdk2 S276C (Cdk2(S276C) (C177A)) | Rate constant with Cdk2 S276C (Cdk2(S276C) (C177A)) | Rate enhancement, Cdk2 S181C (Cdk2(S181C) (C177A)) | also measured |
| --- | --- | --- | --- | --- | --- | --- | --- | --- | --- | --- | --- | --- | --- | --- | --- | --- | --- | --- | --- | --- | --- |
| C=CC(=O)N1C(C(=O)c2ccccc2)C1c1ccccc1 (stereo not drawn) [CA-53] | 0.00428 | 0.004301 | 13.66 | 0.05877 | 1.018 | 0.004377 | 1.165 | 0.005009 | 0.00547 | 1.415 | 0.006086 | 0.00097 | 0.2251 | 0.000968 | 0.177 | 0.226 | 2.22 | 1 | 0.004301 | 14.88 | Rate constant with Cdk2 F80C (Cdk2(C177A, F80C)): 0.009547; Rate constant with Cdk2 S181C (Cdk2(S181C) (C177A)): 0.06402 |
| C=CC(=O)Nc1ccc2c(c1)OC1(CCCC1)O2 [CA-054] | 0.00434 | 0.004326 | 1.059 | 0.004582 | 0.4198 | 0.001816 | 1.023 | 0.004426 | 0.04027 | 1.248 | 0.005397 | 0.00267 | 0.6163 | 0.002666 | 0.0662 | 0.614 | 1.482 | 0.9498 | 0.004109 | 0.4697 | Rate constant with Cdk2 F80C (Cdk2(C177A, F80C)): 0.006411; Rate constant with Cdk2 S181C (Cdk2(S181C) (C177A)): 0.002032 |
| C=CC(=O)NC1C2CC3CC(C2)CC1C3 (stereo not drawn) [CA-055] | 0.00243 | 0.002381 | 0.2621 | 0.0006241 | 0.4288 | 0.001021 | 0.4859 | 0.001157 | 0.00101 | 4.591 | 0.01093 | 0.0007 | 0.4066 | 0.0009681 | 0.6937 | 0.2881 | 0 | 0.6972 | 0.00166 | 1.073 | Rate constant with Cdk2 S181C (Cdk2(S181C) (C177A)): 0.002556 |
| C=CC(=O)N1CCc2sccc2C1c1cccs1 (stereo not drawn) [CA-056] | 0.0174 | 0.01742 | 18.35 | 0.3197 | 0.7819 | 0.01362 | 1.254 | 0.02185 | 0.1361 | 1.548 | 0.02696 | 0.02004 | 1.15 | 0.02004 | 0.1472 | 1.152 | 4.984 | 1.776 | 0.03094 | 2.069 | Rate constant with Cdk2 F80C (Cdk2(C177A, F80C)): 0.08682; Rate constant with Cdk2 S181C (Cdk2(S181C) (C177A)): 0.03604 |
